In ChEMBL document CHEMBL3044750, “Preparation of N-substituted aryl and alkyl carbamates and their inhibitory effect on oat seed germination” (2002):

How the values were obtained:
Avena sativa [1] = test: Inhibition of Avena sativa var. Zenshin seed germination assessed as root length at 1 uM after 6 days (reference value: 7 cm); format: functional
Avena sativa [2] = test: Inhibition of Avena sativa var. Zenshin seed germination assessed as coleoptile length at 1 uM after 6 days (reference value: 9.5 cm); format: functional

Structure (SMILES) | Activity (Avena sativa [1]) [cm] | Activity (Avena sativa [2]) [cm]
O=C(NCSc1ccccc1)OC/C=C/c1ccccc1 [CINNAMYL PHENYLTHIOMETHYLCARBAMATE] | 2.6 | 2.2
COc1ccc(COC(=O)NCSc2ccccc2)cc1 [4-METHOXYBENZYL PHENYLTHIOMETHYLCARBAMATE] | 0.9 | 1.4
O=C(NCCc1ccccc1)OCc1ccccc1 [BENZYL PHENETHYLCARBAMATE] | 2.8 | 5.2
O=C(Nc1ccccc1)OC/C=C/c1ccccc1 [CINNAMYL PHENYLCARBAMATE] | 0.4 | 3.4
O=C(NCSc1ccccc1)Oc1ccc(Cl)cc1Cl [2,4-DICHLOROPHENYL PHENYLTHIOMETHYLCARBAMATE] | 0 | 0
COC(=O)NCSc1ccccc1 [METHYL PHENYLTHIOMETHYLCARBAMATE] | 0 | 0
O=C(NCSc1ccccc1)OCc1ccccc1 [BENZYL PHENYLTHIOMETHYLCARBAMATE] | 0 | 0
O=C(Nc1ccccc1)OCCc1ccccc1 [PHENETHYL PHENYLCARBAMATE] | 0.2 | 0.3
COc1ccc(NC(=O)Oc2ccccc2)cc1 [PHENYL 4-METHOXYPHENYLCARBAMATE] | 7.7 | 8.3
CCOC(=O)NCSc1ccccc1 [ETHYL PHENYLTHIOMETHYLCARBAMATE] | 1 | 0.8
CCCOC(=O)NCSc1ccccc1 [PROPYL PHENYLTHIOMETHYLCARBAMATE] | 1.4 | 1.7
O=C(Nc1ccccc1)OCCCCCc1ccccc1 [5-PHENYLPENTYL PHENYLCARBAMATE] | 2.1 | 6.6
CC(C)OC(=O)Nc1cccc(Cl)c1 [CHLORPROPHAM] | 0 | 0
O=C(Nc1ccccc1)Oc1ccccc1 [PHENYL PHENYLCARBAMATE] | 1.9 | 4.7
O=C(Nc1ccccc1)OCCCCc1ccccc1 [4-PHENYLBUTYL PHENYLCARBAMATE] | 1.2 | 4.9
O=C(Nc1ccccc1)OCc1ccccc1 [BENZYL PHENYLCARBAMATE] | 1.2 | 2.8
Cc1cccc(NC(=O)Oc2ccccc2)c1 [PHENYL M-TOLYLCARBAMATE] | 4.4 | 5.6
O=C(Nc1ccc(F)cc1)Oc1ccccc1 [PHENYL 4-FLUOROPHENYLCARBAMATE] | 4.8 | 6.4
O=C(NCSc1ccccc1)OCCCc1ccccc1 [3-PHENYLPROPYL PHENYLTHIOMETHYLCARBAMATE] | 3.9 | 4.6
CCCCOC(=O)NCSc1ccccc1 [BUTYL PHENYLTHIOMETHYLCARBAMATE] | 3.4 | 2.6
O=C(Nc1ccc(Cl)cc1)Oc1ccccc1 [PHENYL 4-CHLOROPHENYLCARBAMATE] | 4.1 | 8.1
CC(C)OC(=O)NCSc1ccccc1 [ISOPROPYL PHENYLTHIOMETHYLCARBAMATE] | 0 | 0
O=C(NCSc1ccccc1)OCCc1ccccc1 [PHENETHYL PHENYLTHIOMETHYLCARBAMATE] | 0 | 0
O=C(Nc1ccccc1)OCCCc1ccccc1 [3-PHENYLPROPYL PHENYLCARBAMATE] | 1.9 | 3.5
O=C(NCSc1ccccc1)Oc1ccccc1 [PHENYL PHENYLTHIOMETHYLCARBAMATE] | 0 | 0
